ED50, IC50 and melting point data for one molecule are collected here from patent publication US20110009379A1, “INDOLINONE COMPOUND” (ASTELLAS PHARMA INC., priority 2008, published 2011).

Some results are limits rather than exact numbers.

Usually ED50 stands for the dose at which the effect has come halfway, by size or by number of responders. By IC50 is commonly meant the concentration at which inhibition is half-maximal. Higher therefore signals weaker potency in that assay. As usually defined, the melting point is the temperature, or range, at which the solid turns liquid.

The subject of data set [1] is delay of discharging time induced by loperamide in mice. Description: Loperamide induced constipation model (glass bead discharging time). Particulars: Mus musculus; mice (Slc:ddY, male), 0.3 mg/kg loperamide subcutaneously, compound orally; read-out: ED50 (amount which suppresses 50% of the delay of discharging time induced by loperamide). The class given is in vivo. The method, then: It has been known that loperamide as a μ opioid receptor agonist causes convulsive contraction in intestinal tracts. Thus, a delay in the intestinal transport ability due to loperamide is thought as a constipation IBS model.
Mice (Slc:ddY, five-week old, male) fasted from the previous evening of the experiment. On the day of the experiment, the mice were acclimatized to cages for measurement for 1 hour or more, and 0.3 mg/kg of loperamide was administered subcutaneously. After 30 minutes, a compound to be tested was administered orally, ether anesthesia was applied to the mice immediately thereafter, glass beads having diameter of 3 mm were inserted to 2 cm from anus. The mice were returned to the cages for measurement, and the time from waking to discharging of the glass beads was measured. Furthermore, the compound to be tested was dissolved into 10% DMSO, 10% cremophor, and 80% distillated water.
As a result, it has been recognized that there was a delay in the beads discharging time of the loperamide administration group (vehicle group) in comparison with the loperamide non-administration group (control group).
ED50 values (amount of the compound to be tested which suppresses 50% of the delay of discharging time induced by loperamide) of some of the compounds of the formula (I) are shown in Table 3. In this connection, comparative compound 1 is the same compound as comparative compound 1 in Test Example 4.

For a further data set, the target named is Cytochrome P450(2D6) (Homo sapiens, UniProt P10635). Description: Cytochrome P450(2D6) enzyme inhibition test. Particulars: CYP2D6, fluorescent substrate 1.5 μmol/L, 37° C., 20 minutes. It is filed as in vitro ADME. Put shortly:
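CYP2D6 (2.5×10^-8 M) incubated 20 min at 37 °C with 1.5 μmol/L AMMC substrate and compound (3.1×10^-7 to 2×10^-5 M) in pH 7.4 phosphate buffer with NADPH-regenerating system. Stopped with Tris/acetonitrile, fluorescence read at ex 390/em 460 nm, and IC50 taken at 50% inhibition.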

Sequence of Cytochrome P450(2D6) (P10635 whole entry): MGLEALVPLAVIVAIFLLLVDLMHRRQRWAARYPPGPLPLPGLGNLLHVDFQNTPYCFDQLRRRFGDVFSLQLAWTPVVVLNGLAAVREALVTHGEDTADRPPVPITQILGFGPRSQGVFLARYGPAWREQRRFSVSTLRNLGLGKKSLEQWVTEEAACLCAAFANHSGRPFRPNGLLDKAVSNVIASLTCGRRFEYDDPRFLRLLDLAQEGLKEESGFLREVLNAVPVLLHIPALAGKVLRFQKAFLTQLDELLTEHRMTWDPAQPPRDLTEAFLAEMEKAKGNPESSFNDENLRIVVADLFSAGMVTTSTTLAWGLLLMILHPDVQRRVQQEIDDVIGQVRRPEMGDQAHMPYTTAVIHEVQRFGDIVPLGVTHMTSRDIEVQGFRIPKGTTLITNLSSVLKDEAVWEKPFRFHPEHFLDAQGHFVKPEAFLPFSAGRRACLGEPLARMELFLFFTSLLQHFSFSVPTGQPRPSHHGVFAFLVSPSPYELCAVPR

The molecule `O=C(O)/C=C1/C(=O)N(CC2CCCC2)c2c(F)cccc21` [Example 28, (2E)-[1-(cyclopentylmethyl)-7-fluoro-2-oxo-1,2-dihydro-3H-indol-3-ylidene]acetic acid] registered a melting point of 151 to 153 °C. The ED50 in data set [1] worked out at 0.1 mg/kg. Further, the IC50 at Cytochrome P450(2D6) is > 25 µM.
